Data published in PubChem BioAssay (NCI).
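Exposure lasted 48 hours, with cells grown in 96-well plates and compounds tested at five concentrations. GI50: concentration for 50% inhibition of growth. TGI denotes the concentration required for complete inhibition of growth.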

What was measured:
Assay in all cases: DTP human tumour cell line panel, 48 h
EKVX NSCLC = system: EKVX NSCLC
HOP-92 NSCLC = system: HOP-92 NSCLC
LOX IMVI melanoma = system: LOX IMVI melanoma
OVCAR-5 ovarian = system: OVCAR-5 ovarian
SK-OV-3 ovarian = system: SK-OV-3 ovarian
T-47D breast = system: T-47D breast
BT-549 breast = system: BT-549 breast
COLO 205 colon = system: COLO 205 colon
SF-539 CNS = system: SF-539 CNS
NCI-H522 lung = system: NCI-H522 lung
HS 578T breast = system: HS 578T breast
UO-31 renal = system: UO-31 renal
K-562 leukemia = system: K-562 leukemia
ACHN renal = system: ACHN renal
SF-295 CNS = system: SF-295 CNS
SK-MEL-2 melanoma = system: SK-MEL-2 melanoma
A549 NSCLC = system: A549 NSCLC
U251 CNS = system: U251 CNS
SF-268 CNS = system: SF-268 CNS
NCI-H23 lung = system: NCI-H23 lung
PC-3 prostate = system: PC-3 prostate
HCT-116 colon = system: HCT-116 colon
HL-60(TB) leukemia = system: HL-60(TB) leukemia
CAKI-1 renal = system: CAKI-1 renal
SNB-75 CNS = system: SNB-75 CNS
SNB-19 CNS = system: SNB-19 CNS
HCT-15 colon = system: HCT-15 colon
IGROV1 ovarian = system: IGROV1 ovarian
786-0 renal = system: 786-0 renal
TK-10 renal = system: TK-10 renal
UACC-257 melanoma = system: UACC-257 melanoma
CCRF-CEM leukemia = system: CCRF-CEM leukemia
DU-145 prostate = system: DU-145 prostate
OVCAR-8 ovarian = system: OVCAR-8 ovarian
MCF7 breast = system: MCF7 breast
MDA-MB-231 breast = system: MDA-MB-231 breast
SW-620 colon = system: SW-620 colon
HCC-2998 colon = system: HCC-2998 colon
SR leukemia = system: SR leukemia
HOP-62 NSCLC = system: HOP-62 NSCLC
UACC-62 melanoma = system: UACC-62 melanoma
M14 melanoma = system: M14 melanoma
OVCAR-4 ovarian = system: OVCAR-4 ovarian
HT29 colon = system: HT29 colon
NCI-H460 lung = system: NCI-H460 lung
A498 renal = system: A498 renal
MALME-3M melanoma = system: MALME-3M melanoma
NCI-H226 lung = system: NCI-H226 lung
MOLT-4 leukemia = system: MOLT-4 leukemia
SN12C renal = system: SN12C renal
RPMI-8226 leukemia = system: RPMI-8226 leukemia
RXF 393 renal = system: RXF 393 renal
KM12 colon = system: KM12 colon
OVCAR-3 ovarian = system: OVCAR-3 ovarian
NCI/ADR-RES ovarian = system: NCI/ADR-RES ovarian
SK-MEL-5 melanoma = system: SK-MEL-5 melanoma
SK-MEL-28 melanoma = system: SK-MEL-28 melanoma
MDA-MB-435 = system: MDA-MB-435

CCCn1cnc2c(c1=N)C(c1ccc(Cl)cc1)c1sc3c(C)cccc3c1O2 (centres undefined)
GI50 (EKVX NSCLC): 0.572 µM
TGI (EKVX NSCLC): 19.4 µM
GI50 (HOP-92 NSCLC): 1.98 µM
TGI (HOP-92 NSCLC): 14.5 µM
GI50 (LOX IMVI melanoma): 0.701 µM
TGI (LOX IMVI melanoma): 6.73 µM
GI50 (OVCAR-5 ovarian): 0.674 µM
TGI (OVCAR-5 ovarian): 13.1 µM
GI50 (SK-OV-3 ovarian): 0.68 µM
TGI (SK-OV-3 ovarian): 19.7 µM
GI50 (T-47D breast): 0.522 µM
TGI (T-47D breast): 24.3 µM
GI50 (BT-549 breast): 1.49 µM
TGI (BT-549 breast): 6.89 µM
GI50 (COLO 205 colon): 0.386 µM
TGI (COLO 205 colon): 1.9 µM
GI50 (SF-539 CNS): 0.316 µM
TGI (SF-539 CNS): 1.11 µM
GI50 (NCI-H522 lung): 0.387 µM
TGI (NCI-H522 lung): 5.7 µM
GI50 (HS 578T breast): 0.352 µM
TGI (HS 578T breast): 5.47 µM
GI50 (UO-31 renal): 0.612 µM
TGI (UO-31 renal): 18.2 µM
GI50 (K-562 leukemia): 0.283 µM
TGI (K-562 leukemia): 4.2 µM
GI50 (ACHN renal): 0.791 µM
TGI (ACHN renal): 14.9 µM
GI50 (SF-295 CNS): 0.374 µM
TGI (SF-295 CNS): 10.5 µM
GI50 (SK-MEL-2 melanoma): 0.726 µM
TGI (SK-MEL-2 melanoma): 16 µM
GI50 (A549 NSCLC): 0.53 µM
TGI (A549 NSCLC): 8.74 µM
GI50 (U251 CNS): 0.432 µM
TGI (U251 CNS): 11.3 µM
GI50 (SF-268 CNS): 0.953 µM
TGI (SF-268 CNS): 11.1 µM
GI50 (NCI-H23 lung): 0.587 µM
TGI (NCI-H23 lung): 13.1 µM
GI50 (PC-3 prostate): 0.454 µM
TGI (PC-3 prostate): 14.3 µM
GI50 (HCT-116 colon): 0.41 µM
TGI (HCT-116 colon): 2.15 µM
GI50 (HL-60(TB) leukemia): 0.346 µM
TGI (HL-60(TB) leukemia): 1.69 µM
GI50 (CAKI-1 renal): 0.192 µM
TGI (CAKI-1 renal): 14.9 µM
GI50 (SNB-75 CNS): 0.237 µM
TGI (SNB-75 CNS): 2.66 µM
GI50 (SNB-19 CNS): 0.527 µM
TGI (SNB-19 CNS): 17.6 µM
GI50 (HCT-15 colon): 0.409 µM
TGI (HCT-15 colon): 4.93 µM
GI50 (IGROV1 ovarian): 0.464 µM
TGI (IGROV1 ovarian): 11.8 µM
GI50 (786-0 renal): 0.558 µM
TGI (786-0 renal): 11.2 µM
GI50 (TK-10 renal): 5.69 µM
TGI (TK-10 renal): 24 µM
GI50 (UACC-257 melanoma): 8.9 µM
TGI (UACC-257 melanoma): 29 µM
GI50 (CCRF-CEM leukemia): 0.38 µM
GI50 (DU-145 prostate): 0.444 µM
TGI (DU-145 prostate): 5.44 µM
GI50 (OVCAR-8 ovarian): 0.522 µM
TGI (OVCAR-8 ovarian): 11.4 µM
GI50 (MCF7 breast): 0.339 µM
TGI (MCF7 breast): 10.8 µM
GI50 (MDA-MB-231 breast): 0.774 µM
TGI (MDA-MB-231 breast): 13.2 µM
GI50 (SW-620 colon): 0.402 µM
TGI (SW-620 colon): 11.7 µM
GI50 (HCC-2998 colon): 0.732 µM
TGI (HCC-2998 colon): 6.1 µM
GI50 (SR leukemia): 0.377 µM
TGI (SR leukemia): 5.99 µM
GI50 (HOP-62 NSCLC): 0.477 µM
TGI (HOP-62 NSCLC): 10.7 µM
GI50 (UACC-62 melanoma): 0.49 µM
TGI (UACC-62 melanoma): 15 µM
GI50 (M14 melanoma): 0.314 µM
TGI (M14 melanoma): 3.86 µM
GI50 (OVCAR-4 ovarian): 1.57 µM
TGI (OVCAR-4 ovarian): 17.8 µM
GI50 (HT29 colon): 0.402 µM
TGI (HT29 colon): 5.11 µM
GI50 (NCI-H460 lung): 0.362 µM
TGI (NCI-H460 lung): 1.9 µM
GI50 (A498 renal): 0.304 µM
TGI (A498 renal): 1.17 µM
GI50 (MALME-3M melanoma): 10.2 µM
TGI (MALME-3M melanoma): 25.1 µM
GI50 (NCI-H226 lung): 0.431 µM
TGI (NCI-H226 lung): 4.08 µM
GI50 (MOLT-4 leukemia): 0.498 µM
TGI (MOLT-4 leukemia): 7.7 µM
GI50 (SN12C renal): 0.879 µM
TGI (SN12C renal): 13.3 µM
GI50 (RPMI-8226 leukemia): 0.381 µM
TGI (RPMI-8226 leukemia): 3.72 µM
GI50 (RXF 393 renal): 0.217 µM
TGI (RXF 393 renal): 0.6 µM
GI50 (KM12 colon): 0.443 µM
TGI (KM12 colon): 11.2 µM
GI50 (OVCAR-3 ovarian): 0.283 µM
TGI (OVCAR-3 ovarian): 1.05 µM
GI50 (NCI/ADR-RES ovarian): 0.316 µM
TGI (NCI/ADR-RES ovarian): 2.44 µM
GI50 (SK-MEL-5 melanoma): 0.43 µM
TGI (SK-MEL-5 melanoma): 3.46 µM
GI50 (SK-MEL-28 melanoma): 2.34 µM
TGI (SK-MEL-28 melanoma): 21.9 µM

OC1CCN(CCCOc2c3ccc(Cl)cc3nc3c2oc2ccccc23)CC1
GI50 (EKVX NSCLC): 2.39 µM
TGI (EKVX NSCLC): 8.46 µM
GI50 (HOP-92 NSCLC): 1.04 µM
TGI (HOP-92 NSCLC): 3.79 µM
GI50 (LOX IMVI melanoma): 0.343 µM
TGI (LOX IMVI melanoma): 1.45 µM
GI50 (OVCAR-5 ovarian): 1.97 µM
TGI (OVCAR-5 ovarian): 6.85 µM
GI50 (SK-OV-3 ovarian): 2.42 µM
TGI (SK-OV-3 ovarian): 10.5 µM
GI50 (BT-549 breast): 2.49 µM
TGI (BT-549 breast): 7.24 µM
GI50 (COLO 205 colon): 0.661 µM
TGI (COLO 205 colon): 2.15 µM
GI50 (SF-539 CNS): 1.32 µM
TGI (SF-539 CNS): 2.64 µM
GI50 (NCI-H522 lung): 1.28 µM
TGI (NCI-H522 lung): 3.2 µM
GI50 (HS 578T breast): 2.17 µM
TGI (HS 578T breast): 8.01 µM
GI50 (UO-31 renal): 0.517 µM
TGI (UO-31 renal): 3.1 µM
GI50 (ACHN renal): 0.491 µM
TGI (ACHN renal): 11.7 µM
GI50 (SF-295 CNS): 2.08 µM
TGI (SF-295 CNS): 11.8 µM
GI50 (SK-MEL-2 melanoma): 1.76 µM
TGI (SK-MEL-2 melanoma): 3.34 µM
GI50 (MDA-MB-435): 1.23 µM
TGI (MDA-MB-435): 2.57 µM
GI50 (A549 NSCLC): 1.23 µM
TGI (A549 NSCLC): 23.2 µM
GI50 (U251 CNS): 1.09 µM
TGI (U251 CNS): 7.4 µM
GI50 (SF-268 CNS): 1.49 µM
TGI (SF-268 CNS): > 100 µM
GI50 (PC-3 prostate): 1.49 µM
TGI (PC-3 prostate): 4.07 µM
GI50 (HCT-116 colon): 0.39 µM
TGI (HCT-116 colon): 2.11 µM
GI50 (HL-60(TB) leukemia): 1.58 µM
TGI (HL-60(TB) leukemia): 4.8 µM
GI50 (CAKI-1 renal): 0.525 µM
TGI (CAKI-1 renal): 3.35 µM
GI50 (SNB-75 CNS): 1.33 µM
TGI (SNB-75 CNS): 2.7 µM
GI50 (SNB-19 CNS): 2.28 µM
TGI (SNB-19 CNS): 32.6 µM
GI50 (HCT-15 colon): 0.78 µM
TGI (HCT-15 colon): > 100 µM
GI50 (IGROV1 ovarian): 1.97 µM
TGI (IGROV1 ovarian): 12.5 µM
GI50 (786-0 renal): 1.3 µM
TGI (786-0 renal): 4.86 µM
GI50 (TK-10 renal): 2.78 µM
TGI (TK-10 renal): 7.65 µM
GI50 (UACC-257 melanoma): 1.72 µM
TGI (UACC-257 melanoma): 3.49 µM
GI50 (DU-145 prostate): 1.57 µM
TGI (DU-145 prostate): > 100 µM
GI50 (OVCAR-8 ovarian): 1.13 µM
TGI (OVCAR-8 ovarian): 13.5 µM
GI50 (MCF7 breast): 0.968 µM
TGI (MCF7 breast): 4.3 µM
GI50 (MDA-MB-231 breast): 1.57 µM
TGI (MDA-MB-231 breast): 6.13 µM
GI50 (SR leukemia): 0.458 µM
TGI (SR leukemia): 3.23 µM
GI50 (HOP-62 NSCLC): 1.86 µM
TGI (HOP-62 NSCLC): 11.4 µM
GI50 (M14 melanoma): 1.34 µM
TGI (M14 melanoma): 3.09 µM
GI50 (OVCAR-4 ovarian): 1.39 µM
TGI (OVCAR-4 ovarian): 5.09 µM
GI50 (HT29 colon): 0.61 µM
TGI (HT29 colon): 2.27 µM
GI50 (MALME-3M melanoma): 1.49 µM
TGI (MALME-3M melanoma): 3.1 µM
GI50 (NCI-H226 lung): 1.99 µM
TGI (NCI-H226 lung): 5.63 µM
GI50 (MOLT-4 leukemia): 0.391 µM
TGI (MOLT-4 leukemia): 3.2 µM
GI50 (SN12C renal): 0.839 µM
TGI (SN12C renal): > 100 µM
GI50 (RPMI-8226 leukemia): 1.59 µM
TGI (RPMI-8226 leukemia): 4.8 µM
GI50 (RXF 393 renal): 1.28 µM
TGI (RXF 393 renal): 3.36 µM
GI50 (KM12 colon): 1.48 µM
TGI (KM12 colon): > 100 µM
GI50 (OVCAR-3 ovarian): 2.2 µM
TGI (OVCAR-3 ovarian): > 100 µM
GI50 (SK-MEL-5 melanoma): 1.79 µM
TGI (SK-MEL-5 melanoma): 3.25 µM
GI50 (SK-MEL-28 melanoma): 1.69 µM
TGI (SK-MEL-28 melanoma): 3.17 µM
